This note sets out measurements from patent US6380229B1, “2-(N-cyanoimino)thiazolidin-4-one derivatives” (Fujimoto Co., Ltd., priority 2001, dated 2002).

Each structure is given as a SMILES string.

Data set [1] deals with high cholesterol-fed hamsters. The data set is described as follows: Lipid lowering effects in high cholesterol-fed hamsters. Format: in vivo, Male Syrian hamsters. The following applies: serum. The method, then: Lipid Lowering Effects in High Cholesterol-fed Hamsters
The compounds were tested for lipid lowering effects in high cholesterol-fed hamsters in accordance with the method described in Jpn Pharmacol Ther, 23 (suppl 4), s1047-1053 (1995). Male Syrian hamsters were fed the high cholesterol diet supplemented with 1% cholesterol and 10% coconut oil for 3 weeks. Before drug administration, blood was collected from the orbital venous plexus under ether anesthesia, and a serum total cholesterol level was measured. […] The designated doses of the compound of Example 1 or Bezafibrate were administrated to test groups and the vehicle solution was given to the control group orally once a day for 7 days under the high cholesterol diet feeding. The intact group of animals were fed normal diet. After 4 hours of the final administration, blood was collected by cardiac puncture, and the total cholesterol and triglyceride levels in the serum were determined by the enzymatic method.
The reduction rate (%) was calculated according to the following equation: [formula]

In another data set the test system is mice. The data set is described as follows: Acute toxicity, single oral dose. It is filed as in vivo. The following applies: oral 2000 mg/kg, observed daily for 2 weeks. An excerpt: The animals were observed daily for 2 weeks after the administration.
Data set [2] relates to Salmonella typhimurium TA100 and TA98. The data set is described as follows: Mutagenicity test (reverse mutation test). It is filed as cell-based. The following applies: absence or presence of S9 mix. From the text:
The mutagenicity of the compound of Example 1 was examined by a reverse mutation test using Salmonella typhimurium TA100 and TA98 in the absence or presence of S9 mix.

For data set [3], the system named is fructose-induced hyperlipidemic rats. The data set is described as follows: Hypotriglyceridemic activity in fructose-induced hyperlipidemic rats. It is filed as in vivo, Sprague Dawley rats. The following applies: serum, 30 mg/kg p.o. once a day for 7 days, blood 2 hours after final administration; for inhibition in vivo at 30 mg/kg: Rattus norvegicus, po, read-out: Triglyceride (% Reduction). The method, then: Hypotriglyceridemic Activity in Fructose-induced Hyperlipidemic Rats
The compounds were tested for a hypotriglyceridemic activity in fructose-induced hyperlipidemic rats in accordance with the method described in Nippon Yakurigaku Zasshi, 92 (3), 175-180 (1988). […] 75% fructose solution as drinking water was given to the animals for 7 days, while normal water was given to the intact groups ad libitum. During the experimental period the test compounds suspended in 3% gum arabic were given to the test group orally once a day in a daily dose of 30 mg/kg. The vehicle solution was given to the control group and the intact group. After 2 hours from the final administration, blood was collected from the abdominal aorta under ether anesthesia, and levels of total cholesterol and triglyceride in the serum were measured. The reduction rate (%) was calculated according to the following equation: [formula]
Above experimental model is well known as a model of hypertriglicemia.

[4] abbreviates: 30 mg/kg orally once a day for 7 days, minus = increase.
The mark [5] stands for this setting: 60 mg/kg orally once a day for 7 days, minus = increase.
The mark [6] stands for this setting: 120 mg/kg orally once a day for 7 days, minus = increase.
The mark [7] stands for this setting: 15 mg/kg orally once a day for 7 days, minus = increase.
[8] abbreviates: Table 4 (Example 65), 15 mg/kg p.o.

In the case of `CC(C)(Oc1ccc(CCNC(=O)c2ccc(Cl)cc2)cc1)C(=O)O` [Bezafibrate, reference compound], the results for the “Total cholesterol (% Reduction)” value in data set [1] (setting [4]), in data set [1] (setting [5]) and in data set [1] (setting [6]) were −5%, −0% and 20%, respectively. The “Triglyceride (% Reduction)” value is listed as −21% in data set [1] (setting [4]), −18% in data set [1] (setting [5]) and 16% in data set [1] (setting [6]).

For the compound `N#CN=C1NC(=O)/C(=C\c2ccc(C=Cc3ccccc3)cc2)S1` [Example 1, 2-(N-Cyanoimino)-5-[(E)-4-stylylbenzylidene]thiazolidin-4-one], in the data set on mice, the “single dose toxicity: deaths” value is “no deaths were observed”. Besides, in data set [2], the “mutagenicity (number of revertant colonies)” value is “not mutagenic”. The “Triglyceride (% Reduction)” value in data set [3] is 47%; in data set [1] (setting [7]) it was 60%; in data set [1] (setting [4]), 62%; in data set [1] (setting [5]), 69%; in data set [1] (setting [6]), 80%. Besides, the “Total cholesterol (% Reduction)” value is listed as 26% in data set [1] (setting [7]), 25% in data set [1] (setting [4]), 29% in data set [1] (setting [5]) and 41% in data set [1] (setting [6]).

In the case of `CC(=Cc1ccccc1)c1ccc(/C=C2/SC(=NC#N)NC2=O)cc1` [Example 2, 2-(N-Cyanoimino)-5-[(E)-4-(a-methylstylyl)benzylidene]thiazolidin-4-one], the “Triglyceride (% Reduction)” value in data set [3] was 67%. In addition, in data set [1] (setting [8]), the “Total cholesterol (% Reduction)” value is on record as 27% and the “Triglyceride (% Reduction)” value came to 57%.

Turning to `N#CN=C1NC(=O)C(=Cc2ccc(COCc3ccccc3)cc2)S1` [Example 3, 2-(N-Cyanoimino)-5-[4-(benzyloxymethyl)benzylidene]thiazolidin-4-one], the inhibition in vivo at 30 mg/kg in data set [3] amounted to 64%. In addition, in data set [1] (setting [8]), the “Total cholesterol (% Reduction)” value turned out to be 16% and the “Triglyceride (% Reduction)” value was determined as 17%.

As for `CC(=Cc1ccc(/C=C2/SC(=NC#N)NC2=O)cc1)c1ccccc1` [Example 4, 2-(N-Cyanoimino)-5-[(E)-4-(b-methylstylyl)benzylidene]thiazolidin-4-one], the “Triglyceride (% Reduction)” value in data set [3] is reported as 42%.

For `N#CN=C1NC(=O)C(=Cc2ccc(Oc3ccc(Cl)cc3)cc2)S1` [Example 6, 2-(N-Cyanoimino)-5-[4-(4-chlorophenoxy)benzylidene]thiazolidin-4-one], the inhibition in vivo at 30 mg/kg in data set [3] was determined as 84%.

As to `N#CN=C1NC(=O)C(=Cc2ccc(Sc3ccccc3)cc2)S1` [Example 7, 2-(N-Cyanoimino)-5-(4-phenylthiobenzylidene)thiazolidin-4-one], the inhibition in vivo at 30 mg/kg in data set [3] came out at 60%. In data set [1] (setting [8]), the “Total cholesterol (% Reduction)” value came out at 18% and the “Triglyceride (% Reduction)” value is 12%.

As to `N#CN=C1NC(=O)/C(=C\c2ccc(C=Cc3ccccc3F)cc2)S1` [Example 8, 2-(N-Cyanoimino)-5-[(E)-4-(2-fluorostylyl)benzylidene]thiazolidin-4-one], in data set [3], the “Triglyceride (% Reduction)” value amounted to 47%.

On to `Cc1ccc(C)c(Oc2ccc(C=C3SC(=NC#N)NC3=O)cc2)c1` [Example 9, 2-(N-Cyanoimino)-5-[4-(2,5-dimethylphenoxy)benzylidene]thiazolidin-4-one], for which the inhibition in vivo at 30 mg/kg in data set [3] was found to be 49%. Moreover, in data set [1] (setting [8]), the “Total cholesterol (% Reduction)” value is reported as 15% and the “Triglyceride (% Reduction)” value worked out at 15%.

Regarding `N#CN=C1NC(=O)C(=Cc2ccc(OCCc3ccccc3)cc2)S1` [Example 10, 2-(N-Cyanoimino)-5-(4-phenethyloxybenzylidene)thiazolidin-4-one], the “single dose toxicity: deaths” value with mice is listed as “no deaths were observed”. For the same compound, the inhibition in vivo at 30 mg/kg in data set [3] was 39%.

In the case of `CC(COc1ccc(C=C2SC(=NC#N)NC2=O)cc1)c1ccccc1` (stereo not shown) [Example 11, 2-(N-Cyanoimino)-5-[4-(2-phenylpropoxy)benzylidene]thiazolidin-4-one], the inhibition in vivo at 30 mg/kg in data set [3] amounted to 62%.

On to `N#CN=C1NC(=O)C(=Cc2cccc(OCCc3ccccc3)c2)S1` [Example 12, 2-(N-Cyanoimino)-5-(3-phenethyloxybenzylidene)thiazolidin-4-one], for which, in data set [3], the inhibition in vivo at 30 mg/kg was 59%.

For `N#CN=C1NC(=O)C(=Cc2ccc(OCc3ccccc3)cc2)S1` [Example 13, 2-(N-Cyanoimino)-5-(4-benzyloxybenzylidene)thiazolidin-4-one], the inhibition in vivo at 30 mg/kg in data set [3] came out at 55%.

As for `N#CN=C1NC(=O)C(=Cc2ccc(-c3cc4cc(Cl)ccc4o3)cc2)S1` [Example 14, 2-(N-Cyanoimino)-5-[4-(5-chlorobenzofuran-2-yl)benzylidene]thiazolidin-4-one], the inhibition in vivo at 30 mg/kg in data set [3] is 36%. Moreover, in data set [1] (setting [8]), the “Total cholesterol (% Reduction)” value is on record as 11% and the “Triglyceride (% Reduction)” value came out at 24%.

For the compound `COc1ccc(C=Cc2ccc(/C=C3/SC(=NC#N)NC3=O)cc2)cc1` [Example 15, 2-(N-Cyanoimino)-5-[(E)-4-(4-methoxystylyl)benzylidene]thiazolidin-4-one], the “Triglyceride (% Reduction)” value in data set [3] was determined as 47%. In addition, in data set [1] (setting [8]), the “Total cholesterol (% Reduction)” value was 32% and the “Triglyceride (% Reduction)” value is reported as 61%.

Regarding `N#CN=C1NC(=O)C(=Cc2cccc(Oc3ccccc3)c2)S1` [Example 16, 2-(N-Cyanoimino)-5-(3-phenoxybenzylidene)thiazolidin-4-one], the inhibition in vivo at 30 mg/kg in data set [3] is 54%.

Consider `N#CN=C1NC(=O)C(=Cc2ccc(OCc3ccc4c(c3)OCO4)cc2)S1` [Example 17, 2-(N-Cyanoimino)-5-[4-(1,3-benzodioxol-5-ylmethoxy)benzylidene]thiazolidin-4-one], for which the inhibition in vivo at 30 mg/kg in data set [3] stood at 37%.

As for `N#CN=C1NC(=O)C(=Cc2ccc(OCc3ccc(Cl)cc3)cc2)S1` [Example 19, 2-(N-Cyanoimino)-5-[4-(4-chlorobenzyloxy)benzylidene]thiazolidin-4-one], in data set [3], the inhibition in vivo at 30 mg/kg stood at 38%.

In the case of `N#CN=C1NC(=O)C(=Cc2ccccc2OCCc2ccccc2)S1` [Example 21, 2-(N-Cyanoimino)-5-(2-phenethyloxybenzylidene)thiazolidin-4-one], the inhibition in vivo at 30 mg/kg in data set [3] was 48%.

`N#CN=C1NC(=O)C(=Cc2ccc(Oc3ccccc3)cc2)S1` [Example 22, 2-(N-Cyanoimino)-5-(4-phenoxybenzylidene)thiazolidin-4-one]: in data set [3], the inhibition in vivo at 30 mg/kg is 65%.

For the compound `CCC(Oc1ccc(C)cc1)c1ccccc1` (stereo not shown) [Example 32], the inhibition in vivo at 30 mg/kg in data set [3] was determined as 47%.
